According to publication PMC4774911, “Biochemical Screening of Five Protein Kinases from Plasmodium falciparum against 14,000 Cell-Active Compounds” (PLoS ONE, 2016):
Several values for one entry are separate records, joined by “and”; a condition that tells them apart may be missing. Identical values can stand only once.

How the values were obtained:
Test in all cases: biochemical
ABL2 = ABL2 (Homo sapiens, UniProt P42684)
CRKRS = CRKRS (Homo sapiens, UniProt Q9NYV4)
CSNK1A1 = CSNK1A1 (Homo sapiens, UniProt P48729)
CSNK1A1, sequence (P48729 whole entry): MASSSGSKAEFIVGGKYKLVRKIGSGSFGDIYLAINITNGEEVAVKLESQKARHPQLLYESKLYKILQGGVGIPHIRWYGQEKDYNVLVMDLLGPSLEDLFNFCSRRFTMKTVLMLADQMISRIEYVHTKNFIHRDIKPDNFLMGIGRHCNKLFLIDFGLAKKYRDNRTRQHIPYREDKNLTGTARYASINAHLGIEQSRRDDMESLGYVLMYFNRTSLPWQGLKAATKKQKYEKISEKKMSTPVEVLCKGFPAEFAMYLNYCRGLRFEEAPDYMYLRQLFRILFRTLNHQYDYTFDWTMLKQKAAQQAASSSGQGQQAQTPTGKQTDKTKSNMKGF

DYRK1A = DYRK1A (Homo sapiens, UniProt Q13627)
GAK = target: T1, GAK (Homo sapiens, UniProt O14976)
T1 sequence (O14976 1-1311): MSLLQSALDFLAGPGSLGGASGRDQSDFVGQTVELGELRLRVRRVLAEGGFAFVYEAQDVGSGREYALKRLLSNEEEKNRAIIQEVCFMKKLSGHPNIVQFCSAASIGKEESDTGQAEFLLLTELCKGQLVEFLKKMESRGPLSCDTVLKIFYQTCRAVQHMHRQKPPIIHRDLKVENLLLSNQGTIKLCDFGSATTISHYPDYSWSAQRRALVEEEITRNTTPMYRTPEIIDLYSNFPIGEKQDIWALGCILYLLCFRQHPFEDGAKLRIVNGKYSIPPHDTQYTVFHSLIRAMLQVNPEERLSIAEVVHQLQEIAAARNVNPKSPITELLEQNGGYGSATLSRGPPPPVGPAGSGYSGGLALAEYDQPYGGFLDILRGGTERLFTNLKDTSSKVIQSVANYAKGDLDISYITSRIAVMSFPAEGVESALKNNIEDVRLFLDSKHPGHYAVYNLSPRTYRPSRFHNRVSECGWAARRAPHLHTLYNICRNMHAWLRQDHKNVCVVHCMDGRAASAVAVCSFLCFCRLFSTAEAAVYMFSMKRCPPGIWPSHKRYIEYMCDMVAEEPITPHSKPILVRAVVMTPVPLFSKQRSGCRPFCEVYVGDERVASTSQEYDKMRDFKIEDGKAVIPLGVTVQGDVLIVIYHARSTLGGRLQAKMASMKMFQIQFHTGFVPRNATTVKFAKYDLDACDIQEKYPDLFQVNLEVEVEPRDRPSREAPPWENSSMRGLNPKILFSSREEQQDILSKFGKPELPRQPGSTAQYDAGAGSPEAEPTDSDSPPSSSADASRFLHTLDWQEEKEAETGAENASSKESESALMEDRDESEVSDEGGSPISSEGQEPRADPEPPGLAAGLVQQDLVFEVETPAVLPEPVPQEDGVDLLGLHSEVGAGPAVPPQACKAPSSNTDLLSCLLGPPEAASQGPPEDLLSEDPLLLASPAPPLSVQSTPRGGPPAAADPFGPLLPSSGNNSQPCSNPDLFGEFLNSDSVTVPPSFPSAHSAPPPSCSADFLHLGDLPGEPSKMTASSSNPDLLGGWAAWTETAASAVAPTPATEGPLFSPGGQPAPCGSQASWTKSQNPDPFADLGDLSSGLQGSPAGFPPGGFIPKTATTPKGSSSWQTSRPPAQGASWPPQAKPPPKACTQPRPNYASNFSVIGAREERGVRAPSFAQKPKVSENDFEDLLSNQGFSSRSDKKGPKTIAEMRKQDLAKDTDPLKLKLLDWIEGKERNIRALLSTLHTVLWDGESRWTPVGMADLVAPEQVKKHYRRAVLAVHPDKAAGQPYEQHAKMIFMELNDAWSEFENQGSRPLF

MAP3K1 = MAP3K1 (Homo sapiens, UniProt Q13233)
MAP3K1, sequence (Q13233 whole entry): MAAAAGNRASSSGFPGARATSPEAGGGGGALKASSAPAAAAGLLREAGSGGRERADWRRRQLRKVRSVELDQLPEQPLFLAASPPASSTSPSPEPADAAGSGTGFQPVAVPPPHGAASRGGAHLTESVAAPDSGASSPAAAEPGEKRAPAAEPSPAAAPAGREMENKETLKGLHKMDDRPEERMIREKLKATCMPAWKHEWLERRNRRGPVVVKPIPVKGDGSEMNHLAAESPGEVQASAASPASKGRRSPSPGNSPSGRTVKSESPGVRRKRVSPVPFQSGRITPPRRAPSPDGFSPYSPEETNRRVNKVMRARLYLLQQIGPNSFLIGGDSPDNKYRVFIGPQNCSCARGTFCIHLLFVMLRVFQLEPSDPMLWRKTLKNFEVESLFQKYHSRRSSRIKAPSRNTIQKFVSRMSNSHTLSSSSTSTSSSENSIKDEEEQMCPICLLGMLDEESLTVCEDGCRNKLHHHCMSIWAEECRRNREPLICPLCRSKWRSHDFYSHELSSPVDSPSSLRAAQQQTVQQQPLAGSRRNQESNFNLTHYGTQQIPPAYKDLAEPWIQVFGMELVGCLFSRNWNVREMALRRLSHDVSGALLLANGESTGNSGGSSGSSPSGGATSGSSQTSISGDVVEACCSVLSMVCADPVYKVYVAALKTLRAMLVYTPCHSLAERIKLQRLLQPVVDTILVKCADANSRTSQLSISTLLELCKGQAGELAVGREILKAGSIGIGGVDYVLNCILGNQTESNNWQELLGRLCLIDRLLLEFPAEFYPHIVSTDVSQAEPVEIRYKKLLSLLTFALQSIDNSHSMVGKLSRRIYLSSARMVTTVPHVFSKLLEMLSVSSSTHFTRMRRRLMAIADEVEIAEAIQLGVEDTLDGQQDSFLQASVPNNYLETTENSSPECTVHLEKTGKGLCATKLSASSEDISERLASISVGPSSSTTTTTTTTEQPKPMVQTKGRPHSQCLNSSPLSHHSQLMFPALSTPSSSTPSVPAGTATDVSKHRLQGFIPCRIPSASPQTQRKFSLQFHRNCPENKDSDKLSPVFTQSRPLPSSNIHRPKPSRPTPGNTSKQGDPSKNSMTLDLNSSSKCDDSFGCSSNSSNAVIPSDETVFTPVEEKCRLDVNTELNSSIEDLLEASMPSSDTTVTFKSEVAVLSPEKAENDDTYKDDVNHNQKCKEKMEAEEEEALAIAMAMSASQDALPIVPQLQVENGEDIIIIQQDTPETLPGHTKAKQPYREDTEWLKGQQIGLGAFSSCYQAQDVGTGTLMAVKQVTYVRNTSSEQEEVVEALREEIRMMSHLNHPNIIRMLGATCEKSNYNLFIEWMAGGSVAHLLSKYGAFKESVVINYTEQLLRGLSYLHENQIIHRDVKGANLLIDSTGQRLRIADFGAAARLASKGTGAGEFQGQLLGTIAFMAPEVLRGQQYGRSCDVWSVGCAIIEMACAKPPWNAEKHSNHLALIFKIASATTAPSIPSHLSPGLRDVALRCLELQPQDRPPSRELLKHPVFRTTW

MAP3K2 = target: T2, MAP3K2 (Homo sapiens, UniProt Q9Y2U5)
T2 sequence (Q9Y2U5 1-619): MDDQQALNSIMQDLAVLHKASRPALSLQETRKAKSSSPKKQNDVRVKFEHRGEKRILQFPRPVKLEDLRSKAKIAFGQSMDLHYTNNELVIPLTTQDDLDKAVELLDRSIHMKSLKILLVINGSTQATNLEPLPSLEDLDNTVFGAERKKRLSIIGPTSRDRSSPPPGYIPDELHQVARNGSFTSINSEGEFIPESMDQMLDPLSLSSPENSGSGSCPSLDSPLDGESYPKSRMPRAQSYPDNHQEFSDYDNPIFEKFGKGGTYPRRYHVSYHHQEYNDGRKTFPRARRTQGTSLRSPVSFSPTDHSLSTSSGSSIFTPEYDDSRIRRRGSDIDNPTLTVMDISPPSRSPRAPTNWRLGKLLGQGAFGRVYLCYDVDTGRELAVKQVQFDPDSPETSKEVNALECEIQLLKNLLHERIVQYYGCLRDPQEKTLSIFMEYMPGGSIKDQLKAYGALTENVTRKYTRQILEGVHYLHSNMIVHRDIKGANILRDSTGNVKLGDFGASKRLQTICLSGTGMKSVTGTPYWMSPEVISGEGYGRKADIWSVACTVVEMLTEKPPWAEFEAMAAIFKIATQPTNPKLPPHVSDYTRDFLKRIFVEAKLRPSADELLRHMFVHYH

STK11 = target: T3, STK11 (Homo sapiens, UniProt Q15831)
T3 sequence (Q15831 1-433): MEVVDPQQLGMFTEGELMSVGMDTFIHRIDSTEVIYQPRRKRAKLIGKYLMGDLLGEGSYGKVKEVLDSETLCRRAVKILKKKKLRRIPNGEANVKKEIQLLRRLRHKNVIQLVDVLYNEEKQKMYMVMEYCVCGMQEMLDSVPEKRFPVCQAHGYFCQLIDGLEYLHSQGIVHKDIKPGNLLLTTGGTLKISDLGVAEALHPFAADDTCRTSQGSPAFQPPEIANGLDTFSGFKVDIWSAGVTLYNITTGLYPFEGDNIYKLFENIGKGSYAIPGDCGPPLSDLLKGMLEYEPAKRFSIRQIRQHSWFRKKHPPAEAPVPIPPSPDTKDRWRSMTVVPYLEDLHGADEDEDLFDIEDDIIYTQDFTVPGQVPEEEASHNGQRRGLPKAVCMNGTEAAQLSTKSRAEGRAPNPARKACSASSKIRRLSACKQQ

CRKRS, sequence (Q9NYV4 whole entry): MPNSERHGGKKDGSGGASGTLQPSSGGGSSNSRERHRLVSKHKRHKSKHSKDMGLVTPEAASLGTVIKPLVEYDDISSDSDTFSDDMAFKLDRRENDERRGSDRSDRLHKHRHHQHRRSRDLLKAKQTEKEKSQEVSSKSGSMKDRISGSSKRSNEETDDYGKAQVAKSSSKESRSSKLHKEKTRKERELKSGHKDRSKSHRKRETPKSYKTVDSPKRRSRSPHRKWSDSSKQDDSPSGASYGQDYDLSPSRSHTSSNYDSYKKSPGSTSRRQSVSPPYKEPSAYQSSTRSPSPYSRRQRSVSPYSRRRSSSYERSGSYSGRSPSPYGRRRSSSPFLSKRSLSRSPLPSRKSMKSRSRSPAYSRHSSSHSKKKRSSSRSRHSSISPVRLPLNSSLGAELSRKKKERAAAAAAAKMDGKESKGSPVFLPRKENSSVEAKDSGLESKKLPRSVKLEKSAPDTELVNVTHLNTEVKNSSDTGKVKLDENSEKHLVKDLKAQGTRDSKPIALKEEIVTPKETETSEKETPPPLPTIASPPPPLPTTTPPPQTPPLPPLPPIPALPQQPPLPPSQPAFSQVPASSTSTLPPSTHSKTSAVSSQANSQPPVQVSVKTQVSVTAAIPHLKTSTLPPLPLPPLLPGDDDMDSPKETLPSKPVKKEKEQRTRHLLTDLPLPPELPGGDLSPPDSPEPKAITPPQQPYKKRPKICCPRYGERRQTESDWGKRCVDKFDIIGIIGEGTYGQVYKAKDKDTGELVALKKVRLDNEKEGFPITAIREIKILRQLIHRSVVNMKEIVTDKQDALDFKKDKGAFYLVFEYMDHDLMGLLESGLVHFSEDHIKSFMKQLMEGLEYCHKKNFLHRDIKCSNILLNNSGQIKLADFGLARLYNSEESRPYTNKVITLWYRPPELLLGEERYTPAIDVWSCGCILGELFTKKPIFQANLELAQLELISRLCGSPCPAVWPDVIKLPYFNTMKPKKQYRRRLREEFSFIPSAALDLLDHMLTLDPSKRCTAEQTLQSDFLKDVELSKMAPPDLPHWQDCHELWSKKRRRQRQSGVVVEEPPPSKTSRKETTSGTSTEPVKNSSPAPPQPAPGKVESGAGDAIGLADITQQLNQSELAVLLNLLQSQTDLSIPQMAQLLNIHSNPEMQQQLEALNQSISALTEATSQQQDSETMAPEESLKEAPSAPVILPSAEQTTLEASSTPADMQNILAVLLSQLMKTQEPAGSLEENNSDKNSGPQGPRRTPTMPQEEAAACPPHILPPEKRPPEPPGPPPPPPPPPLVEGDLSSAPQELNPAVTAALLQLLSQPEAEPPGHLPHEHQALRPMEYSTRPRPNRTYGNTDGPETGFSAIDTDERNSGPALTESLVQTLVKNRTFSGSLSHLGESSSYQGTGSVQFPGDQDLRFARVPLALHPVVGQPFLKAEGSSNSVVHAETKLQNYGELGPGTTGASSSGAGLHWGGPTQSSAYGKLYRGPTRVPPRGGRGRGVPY
ABL2, sequence (P42684 whole entry): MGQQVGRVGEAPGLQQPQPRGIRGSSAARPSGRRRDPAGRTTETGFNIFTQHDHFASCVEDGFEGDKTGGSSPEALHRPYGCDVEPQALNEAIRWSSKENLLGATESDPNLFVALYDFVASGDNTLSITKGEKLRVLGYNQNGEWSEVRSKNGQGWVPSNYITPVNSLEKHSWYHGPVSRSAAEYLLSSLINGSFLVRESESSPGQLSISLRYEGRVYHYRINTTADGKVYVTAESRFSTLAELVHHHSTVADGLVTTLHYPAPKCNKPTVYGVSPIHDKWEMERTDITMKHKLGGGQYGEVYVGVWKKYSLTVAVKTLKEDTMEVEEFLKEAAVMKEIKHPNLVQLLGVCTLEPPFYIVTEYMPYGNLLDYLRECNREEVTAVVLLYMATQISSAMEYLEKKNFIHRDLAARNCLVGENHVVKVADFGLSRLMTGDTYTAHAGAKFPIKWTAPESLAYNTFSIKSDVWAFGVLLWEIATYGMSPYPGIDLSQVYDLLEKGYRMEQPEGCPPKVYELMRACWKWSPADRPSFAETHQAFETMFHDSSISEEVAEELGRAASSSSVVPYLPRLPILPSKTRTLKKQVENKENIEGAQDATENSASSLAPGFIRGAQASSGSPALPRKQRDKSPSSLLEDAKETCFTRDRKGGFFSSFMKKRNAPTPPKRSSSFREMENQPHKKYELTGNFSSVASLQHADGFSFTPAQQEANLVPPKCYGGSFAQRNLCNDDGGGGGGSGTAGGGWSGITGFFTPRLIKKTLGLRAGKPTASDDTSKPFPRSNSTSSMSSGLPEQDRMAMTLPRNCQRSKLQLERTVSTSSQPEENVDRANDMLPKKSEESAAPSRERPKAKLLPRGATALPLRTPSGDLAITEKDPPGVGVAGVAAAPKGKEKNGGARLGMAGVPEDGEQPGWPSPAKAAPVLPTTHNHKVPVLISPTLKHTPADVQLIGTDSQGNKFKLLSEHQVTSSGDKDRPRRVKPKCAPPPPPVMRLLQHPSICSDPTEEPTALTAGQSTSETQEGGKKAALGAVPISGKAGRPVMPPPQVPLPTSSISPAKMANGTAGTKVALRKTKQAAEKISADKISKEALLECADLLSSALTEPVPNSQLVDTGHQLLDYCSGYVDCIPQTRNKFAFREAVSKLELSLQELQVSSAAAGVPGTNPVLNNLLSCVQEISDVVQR

Row | Compound | IC50 (ABL2) | IC50 (CRKRS) [µM] | IC50 (CSNK1A1) | IC50 (DYRK1A) | IC50 (GAK) | IC50 (MAP3K1) [µM] | IC50 (MAP3K2) [µM] | IC50 (STK11) [µM]
1 | CN1CCN(c2ccc(Nc3ncc(C#N)c(Nc4ccccc4C(N)=O)n3)cc2)CC1.Cl [TCMDC-134116] | 0.2 µM and 0.16 µM | 0.65 | 0.96 µM and 1.4 µM | 0.49 µM and 0.45 µM | 0.082 µM and 0.1 µM | 1.6 | 0.49 | 1
2 | Cl.NCC1(c2nc(-c3ccc(Cl)c(O)c3)c(-c3ccncc3)[nH]2)CCCCC1 [TCMDC-141154] | 0.49 µM and 0.4 µM | > 20 | 0.29 µM and 0.33 µM | > 20 µM | > 20 µM | > 20 | 1.2 | 1.4
3 | CN(C)CC(O)COc1ccc(Nc2ncc([N+](=O)[O-])c(Nc3ccccc3O)n2)cc1.O=C(O)C(F)(F)F (stereo not drawn) [TCMDC-141399] | 4.2 µM | 2.1 | 9.9 µM | 4.9 µM | 1.5 µM and 2.3 µM | > 20 | > 20 | 4.4
